In the experiment the target is T1, GPR103 I26N-termA (Homo sapiens, UniProt Q96P65, I26A).
T1 construct: we used human full-length QRFPR-encoding plasmids; expressed in transfected cells; host or cells: HEK293 cells, pCAGGS vector
T1 sequence (Q96P65 1-431 I26A): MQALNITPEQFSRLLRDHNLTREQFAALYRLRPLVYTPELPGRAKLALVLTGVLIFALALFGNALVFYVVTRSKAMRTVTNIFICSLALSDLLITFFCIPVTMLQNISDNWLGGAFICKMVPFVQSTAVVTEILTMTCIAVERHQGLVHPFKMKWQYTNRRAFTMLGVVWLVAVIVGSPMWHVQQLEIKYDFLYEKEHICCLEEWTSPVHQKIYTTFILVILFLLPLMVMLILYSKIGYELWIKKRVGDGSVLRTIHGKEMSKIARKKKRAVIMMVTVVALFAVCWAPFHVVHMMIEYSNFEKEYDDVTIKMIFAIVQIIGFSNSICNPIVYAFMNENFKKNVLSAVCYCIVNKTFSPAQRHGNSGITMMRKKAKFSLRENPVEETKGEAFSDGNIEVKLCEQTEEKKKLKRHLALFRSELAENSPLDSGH
The experiment is described as follows: TGFα shedding assay; Exp. level WT (1:20). In kind it is cell-based.

These results are taken from article PMC11187126, “Structure and dynamics of the pyroglutamylated RF-amide peptide QRFP receptor GPR103” (Nature Communications, 2024).

No end group written: not given here.

As to TSGPLGNLAEELNGYSRKKGGFSFRF-NH2 [QRFP26], the Emax – broadly, the maximal effect, on the per cent scale that the assay sets – came out at 95.1% (mean) and 97.6 ± 5% (n = 3). The EC50 – broadly, the concentration needed to bring the measured effect to its halfway point – (n = 3) is 43.7 nM.
